Measurements as given in US20240287164A1, “ANTIBODIES SPECIFIC TO NELL2 AND METHODS OF USE” (BOARD OF REGENTS, THE UNIVERSITY OF TEXAS SYSTEM, priority 2021, published 2024).
Entries after “also recorded” stand apart in the source; their conditions may differ. Each block holds one molecule with its values, some of them ahead of it. Where a SMILES comes first, the peptide text is derived from it. The star is where a group is joined. Cbz = O=C(OCc1ccccc1)*

Assays:
Robo3 = biological target: T1, Robo3 (Homo sapiens, UniProt Q96MS0); test: NELL2-FLAG ligand-binding assay in A-673 cells; details: FIG. 2B
T1 construct: endogenous in cells; host or cells: A-673 Ewing sarcoma cells
T1 sequence (Q96MS0 21-1386): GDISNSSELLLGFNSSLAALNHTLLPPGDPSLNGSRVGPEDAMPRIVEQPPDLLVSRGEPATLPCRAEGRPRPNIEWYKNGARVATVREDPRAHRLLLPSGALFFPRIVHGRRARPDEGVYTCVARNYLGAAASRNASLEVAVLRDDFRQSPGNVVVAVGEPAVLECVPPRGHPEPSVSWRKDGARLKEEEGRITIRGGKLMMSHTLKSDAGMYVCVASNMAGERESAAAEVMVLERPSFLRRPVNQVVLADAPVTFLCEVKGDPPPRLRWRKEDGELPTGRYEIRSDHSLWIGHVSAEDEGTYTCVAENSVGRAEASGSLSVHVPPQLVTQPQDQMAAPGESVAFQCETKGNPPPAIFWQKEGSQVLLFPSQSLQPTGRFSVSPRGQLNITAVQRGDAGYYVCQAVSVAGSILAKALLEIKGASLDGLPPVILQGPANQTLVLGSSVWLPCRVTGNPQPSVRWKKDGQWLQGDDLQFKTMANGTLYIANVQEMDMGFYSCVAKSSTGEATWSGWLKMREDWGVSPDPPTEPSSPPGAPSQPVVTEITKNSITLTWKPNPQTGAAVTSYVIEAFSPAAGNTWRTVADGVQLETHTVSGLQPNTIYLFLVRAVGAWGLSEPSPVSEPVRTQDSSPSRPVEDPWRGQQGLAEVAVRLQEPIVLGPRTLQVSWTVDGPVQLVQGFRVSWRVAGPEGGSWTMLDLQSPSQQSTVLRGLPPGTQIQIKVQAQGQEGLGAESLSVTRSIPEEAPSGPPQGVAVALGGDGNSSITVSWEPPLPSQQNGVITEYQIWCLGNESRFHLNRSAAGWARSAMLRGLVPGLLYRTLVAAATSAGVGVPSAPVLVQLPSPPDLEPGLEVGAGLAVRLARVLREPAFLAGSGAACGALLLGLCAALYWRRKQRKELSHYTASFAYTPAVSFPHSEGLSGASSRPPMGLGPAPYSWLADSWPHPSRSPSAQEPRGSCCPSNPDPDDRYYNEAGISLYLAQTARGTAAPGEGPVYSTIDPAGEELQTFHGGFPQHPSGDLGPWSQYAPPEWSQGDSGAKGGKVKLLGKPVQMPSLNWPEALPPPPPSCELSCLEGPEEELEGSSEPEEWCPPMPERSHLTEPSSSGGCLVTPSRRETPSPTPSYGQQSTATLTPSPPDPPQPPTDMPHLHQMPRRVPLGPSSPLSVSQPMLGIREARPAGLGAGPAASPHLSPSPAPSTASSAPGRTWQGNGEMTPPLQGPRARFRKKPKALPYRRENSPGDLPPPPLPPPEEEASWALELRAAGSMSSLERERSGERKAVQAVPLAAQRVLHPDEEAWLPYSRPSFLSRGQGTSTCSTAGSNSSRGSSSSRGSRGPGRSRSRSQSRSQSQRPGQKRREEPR
Procedure: Robo3 expression was readily detectable in Ewing sarcoma tumors and cell lines, but undetectable in mesenchymal stem cells (FIG. 2A). The role of Robo3 as the NELL2 receptor in Ewing sarcoma was tested using ligand-binding assays (FIG. 2B). C-terminally FLAG-tagged NELL2 was produced from transfected 293T/HEK293T cells and was incubated with A-673 cells that were transfected with Robo3 siRNA pool or control siRNA pool. After washing the cells to remove unbound NELL2-FLAG, a whole cell lysate was prepared and analyzed by immunoblotting to assess the binding of NELL2-FLAG to A-673 cells. […] The specificity of the NELL2-Robo3 interaction was further confirmed by ligand-binding assays using alkaline phosphatase-fused NELL2 (NELL2-AP) (FIG. 2C). NELL2-AP bound to COS cells expressing Robo3, but not Robo1 or vector (FIG. 2C).

CD133^low population [1] = test: Chemotherapeutic drug treatment of CD133high and CD133low populations; format: cell-based, human; details: for CD133low population after prolonged treatment: FIG. 4M
Procedure: Flow cytometry. Cells were trypsinized, washed with FACS wash buffer (PBS, 0.5% BSA, 2 mM EDTA), and incubated with PE-conjugated human CD133/1 antibody (clone AC133, Miltenyi Biotec; 1:100 in FACS wash buffer) for 20 minutes at 4° C. Cells were washed three times with FACS wash buffer and the CD133^high and CD133^low cell populations were sorted by using BD FACSAria (Becton Dickinson). The FACSDiva 6.1.3 software (Becton Dickinson) was used for sample analysis.

BAF complexes = test: BAF subunit protein levels by immunoblotting in Ewing sarcoma cells; format: cell-based, human
Text: Immunoblotting. […] The following antibodies were used: rabbit polyclonal anti-FLI1 (ab15289, Abcam); mouse monoclonal anti-FLAG M2 (F1804, MilliporeSigma): rabbit monoclonal anti-NELL2 (ab181376, Abcam); goat polyclonal anti-PGK1 (sc-17943, Santa Cruz Biotechnology); rabbit polyclonal anti-Robo3 (LS-C345713, LSBio); goat polyclonal anti-Robo3 (PA5-18714, Thermo Fisher Scientific); mouse monoclonal anti-cdc42 (ACD03, Cytoskeleton); rabbit polyclonal anti-Rac1/2/3 (2465, Cell Signaling Technologies); rabbit polyclonal anti-Rho A (2117, Cell Signaling Technologies); goat polyclonal anti-BRG1 (A303-877A, Bethyl Laboratories); rabbit monoclonal anti-BRG1 (49360, Cell Signaling Technologies); rabbit polyclonal anti-BRM (A301-014A-T, Bethyl Laboratories); mouse monoclonal anti-ARID1A/BAF250) (sc-32761, Santa Cruz Biotechnology); rabbit polyclonal anti-BAF170 (A301-039A-T, Bethyl Laboratories); rabbit monoclonal anti-BAF155 (11956, Cell Signaling Technologies); rabbit polyclonal anti-BAF60B (A301-596A-T, Bethyl Laboratories); rabbit polyclonal anti-BAF57 (A300-810A-T, Bethyl Laboratories); rabbit polyclonal anti-BAF53A (A301-391A-T, Bethyl Laboratories); rabbit monoclonal anti-BAF47 (8745, Cell Signaling Technologies); rabbit polyclonal anti-BRD9 (A303-781A-T, Bethyl Laboratories); rabbit monoclonal anti-SS18 (21792, Cell Signaling Technologies); rabbit monoclonal anti-CD133 (64326, Cell Signaling Technologies); rabbit polyclonal anti-srGAP1 (A301-286A-T, Bethyl Laboratories); rabbit polyclonal anti-srGAP2 (GTX130797, GeneTex); mouse monoclonal anti-tubulin (DMIA, Thermo Fisher Scientific); rabbit polyclonal anti-β-actin (4967, Cell Signaling Technologies); mouse monoclonal anti-Rpb1 (2629, Cell Signaling Technologies); rabbit monoclonal anti-cdc6 (3387, Cell Signaling Technologies); rabbit monoclonal anti-caveolin-1 (3267, Cell Signaling Technologies); rabbit polyclonal anti-phospho-caveolin-1 (3251, Cell Signaling Technologies); rabbit monoclonal anti-Src (2123, Cell Signaling Technologies); rabbit monoclonal anti-phospho-Src Family (6943, Cell Signaling Technologies); and rabbit polyclonal anti-GDF6 (NBP1-91934, Novus Biologicals). The following HRP-conjugated secondary antibodies were used: goat anti-rabbit (7074) and goat anti-mouse (7076) (Cell Signaling Technologies); donkey anti-goat (A50)-201P, Bethyl Laboratories).

CD133^low population [2] = test: Proliferation of sorted CD133low population (IncuCyte); format: cell-based, human; details: CD133^low population treated with ML141
Procedure: (§1) Cell proliferation and xenograft tumorigenicity assays. Anchorage-dependent cell proliferation was assessed by IncuCyte live-cell imaging system (Essen BioScience). The IncuCyte system monitors cell proliferation by analyzing the occupied area (% confluence) of cell images over time. At least four fields from four wells were assayed for each experimental condition. The cell seeding density was 2000 cells per well in a 96-well plate. For each assay, biological replicates were performed to confirm the reproducibility of results. Anchorage-independent cell proliferation was evaluated by soft agar colony formation assays. A-673 cells were infected with lentiviruses expressing shRNAs against NELL2 or scrambled shRNA and were selected with 2 μg/ml puromycin. Four days after infection, 4×10^3 cells were plated in soft agar. The soft agar cultures were composed of two layers; a base layer [4 ml in a 60-mm dish; DMEM/10% fetal bovine serum/0.6% noble agar (A5431, MilliporeSigma)/penicillin/streptomycin] and a cell layer (2 ml in a 60-mm dish; DMEM/10% fetal bovine serum/0.3% noble agar/penicillin/streptomycin). Colonies were grown for three weeks and counted. Colonies (>50 cells) were scored by randomly counting 10 fields per dish. Sphere formation assays were done (Dasgupta, A., et al. (2017) Oncotarget 8, 77292-77308) using ultra-low attachment 6-well plates (Corning: seeding density 1×10^4 cells/well) and DMEM/F-12 medium supplemented with B27, human recombinant epidermal growth factor (20 ng/ml), and basic fibroblast growth factor (20 ng/ml). For xenograft tumorigenicity assays, cells were subcutaneously injected into the flanks of SCID mice (2×10^6 cells/injection, five mice/group). Tumor growth was monitored weekly using a caliper. While it is not possible to predict the effect size, the sample size of five mice per group was chosen based on experience with xenograft experiments. Mice were randomly allocated to treatment groups. Blinding of the researcher measuring tumor size was employed.
Flow cytometry. […]

Rac. Ras, or Rab = details: Surviladze et al. 2010; cited from earlier work
A-673 and EW8 cells = test: Proliferation of NELL2- or Robo3-silenced Ewing sarcoma cells (IncuCyte); format: cell-based, human; details: 5 μM ML141; A-673 and EW8 cells; FIG. 3E
Procedure: Transfection and viral infection. Calcium phosphate co-precipitation was used for transfection of 293T cells. Lentiviruses were prepared by transfection in 293T cells following System Biosciences' protocol, and the cells infected with lentiviruses were selected with 2 μg/mL puromycin for 48 hours. The target sequences for shRNAs are as follows: FLI1 C-terminus shRNA, […] (SEQ ID NO: 20); luciferase shRNA, […] (SEQ ID NO: 21); NELL2 shRNA-1, […] (SEQ ID NO: 22); and NELL2 shRNA-2, […] (SEQ ID NO: 23). The following siRNAs were used: human NELL2 siRNA SMARTpool (M-012185-00); Dharmacon), human Robo3 siRNA SMARTpool (M-026504-00; Dharmacon), human Robo3 siRNAs NM_022370 (SASI_Hs01_00099511, SASI_Hs01_00099512, SASI_Hs01_00099513, SASI_Hs01_00099514, SASI_Hs01_00099515 and SASI_Hs01_00099516; MilliporeSigma), human cdc42 siRNA SMARTpool (M-005057-01; Dharmacon), human CD133 siRNA SMARTpool (M-010630-01; Dharmacon), human srGAP1 siRNA SMARTpool (M-026974-00; Dharmacon), srGAP2 siRNA SMARTpool (M-021531-03; Dharmacon), human caveolin-1 siRNA SMARTpool (M-003467-01; Dharmacon), human GDF6 siRNA SMARTpool (M-0330055-01; Dharmacon), and Non-Targeting siRNA Pool #2 (D-0012Jun. 14, 2005; Dharmacon), siRNA transfection of cell lines was performed using Lipofectamine™ RNAiMAX Transfection Reagent (Thermo Fisher).
Cell proliferation and xenograft tumorigenicity assays. Anchorage-dependent cell proliferation was assessed by IncuCyte live-cell imaging system (Essen BioScience). The IncuCyte system monitors cell proliferation by analyzing the occupied area (% confluence) of cell images over time. At least four fields from four wells were assayed for each experimental condition. The cell seeding density was 2000 cells per well in a 96-well plate. […] Anchorage-independent cell proliferation was evaluated by soft agar colony formation assays. […] Colonies were grown for three weeks and counted. Colonies (>50 cells) were scored by randomly counting 10 fields per dish. […] Tumor growth was monitored weekly using a caliper. […]

A673 Ewing sarcoma cells = test: Growth inhibition screen of anti-NELL2 hybridoma clones / mAbs on Ewing sarcoma cell proliferation; format: cell-based, human; details: mAbs used at 1 μg/ml, FIG. 6
Procedure: as §1, with “Sphere formation assays were done (Dasgupta, A., et al. (2017) Oncotarget 8, 77292-77308) using ultra-low attachment 6-well plates (Corning: seeding density 1×10^4 cells/well) and DMEM/F-12 medium supplemented with B27, human recombinant epidermal growth factor (20 ng/ml), and basic fibroblast growth factor (20 ng/ml). For xenograft tumorigenicity assays, cells were subcutaneously injected into the flanks of SCID mice (2×10^6 cells/injection, five mice/group).” left out, “While it is not possible to predict the effect size, the sample size of five mice per group was chosen based on experience with xenograft experiments. Mice were randomly allocated to treatment groups. Blinding of the researcher measuring tumor size was employed.” left out

[3] = biological target: T2, NELL2 EGF-like repeats (residue 397-637) (Homo sapiens (Human), UniProt Q99435 397-637); test: immunogen ELISA of hybridoma clones
T2 construct: also called EGF-like repeat domain of NELL2; immunogen
T2 sequence (Q99435 397-637 limits assumed): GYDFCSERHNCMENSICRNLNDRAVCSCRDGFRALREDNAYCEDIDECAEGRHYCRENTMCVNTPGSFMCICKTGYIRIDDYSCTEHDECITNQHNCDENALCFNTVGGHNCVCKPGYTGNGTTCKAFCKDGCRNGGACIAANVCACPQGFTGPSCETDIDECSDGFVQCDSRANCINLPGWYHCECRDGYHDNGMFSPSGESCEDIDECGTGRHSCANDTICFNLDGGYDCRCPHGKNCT

Binding to control siRNA transfected A-673 cells (Robo3): bound | Binding to Robo3-silenced A-673 cells (Robo3; Robo3 siRNA pool): abolished
Molecule: NELL2-FLAG: C-terminally FLAG-tagged NELL2 produced from transfected 293T/HEK293T cells

Molecule: N.N.[Cl][Pt][Cl] [cisplatin]
Resistance of CD133low versus CD133high population to the drug (CD133^low population [1]): more resistant | CD133low population after prolonged treatment (CD133^low population [1]): enriched the CD133^low population

Molecule: CC(C)C[C@@H](C=O)NC(=O)[C@H](CC(C)C)NC(=O)[C@H](CC(C)C)NC(=O)OCc1ccccc1 [MG-132, reference compound] (Cbz-Leu-Leu-Leu-aldehyde)
Protein levels of BRG1, BAF250A, BAF155, and BAF47 reduced by CN04, effect of proteasome inhibitor (BAF complexes; CN04 treatment plus MG-132): restored

Molecule: COc1cccc2c1C(=O)c1c(O)c3c(c(O)c1C2=O)C[C@@](O)(C(=O)CO)C[C@@H]3O[C@H]1C[C@H](N)[C@H](O)[C@H](C)O1 [doxorubicin]
Resistance of CD133low versus CD133high population to the drug (CD133^low population [1]): more resistant | CD133low population after prolonged treatment (CD133^low population [1]): enriched the CD133^low population

Molecule: ML141 [reference compound]
Cell proliferation of CD133low population (CD133^low population [2]): increased cell proliferation | Inhibition of Rac, Ras, or Rab (Rac. Ras, or Rab): does not inhibit | Proliferation inhibition by NELL2 silencing or Robo3 silencing, effect of cdc42 inhibitor (A-673 and EW8 cells): abrogates the proliferation inhibition; also recorded: abolished | BRG1, BAF155, and BAF47 protein levels in CD133low population (BAF complexes; CD133^low population treated with ML141): increased BRG1, BAF155, and BAF47 protein levels | Reduction of BRG1, BAF250A, BAF155, and BAF47 by NELL2 silencing, effect of cdc42 inhibitor (BAF complexes; Ewing sarcoma cells, NELL2 silencing): abolished this response

binding result [3]: binds
B1: anti-NELL2 mouse monoclonal antibody clone #17 (antibody, V domains shown)
VH: DVQLVESGGGLVQPGGSRKLSCAASGFTFSSFGMHWVRQAPEKGLEWVAYVSGGSSTIYYADTVKGRFTISRDNPKNTLFLQMTSLRSEDTAMYYCARSFSLLRLPVYFDFWGQGTTLTVSS
VL: DIQMTQSPSSLSASLGERVSLTCRASQEISDYLTWLQQKPDGTIKRLIYAASTLDSGVPKRFSGSRSGSDYSLTISSLESEDFADYYCLQYASFPLTFGAGTKLELK
notes: Mouse hybridoma mAb; also called NELL2 mAb
Ewing sarcoma cell proliferation (A673 Ewing sarcoma cells): strongly inhibited

binding result [3]: binds
B2: anti-NELL2 mouse monoclonal antibody clone #15 (antibody, V domains shown)
VH: EVKLVESGGGLVQPGGSLKLSCATSGFTFSDYYLYWVRQTPEKRLEWVAYISNGGDITYYPDTVKGRFAISRDNAKNTLYLQMSRLKSEDTAMYYCARGRVRSYYGNPDAMDFWGQGTSVTVSS
VL: DVVMTQTPLSLPVSLGDQASISCRSSQSLVHSNGNTYLHWYLQKPGQSPKLLIYKVSKRFSGVPDRFSGSGSGTDFTLKITRVEAEDLGVYFCSQSIYVPHTFGGGTKLEIK
notes: as for B1
Ewing sarcoma cell proliferation (A673 Ewing sarcoma cells): strongly inhibited
